{"source": "patent US12605318B2", "about": "“Synergistic preservative/personal care composition containing an alkylene glycol ester” (priority 2020, dated 2026)", "assay_in_all_cases": "Log reduction test of preservative agent and PGC in water matrices (drop plate), Example 3", "type_in_all_cases": "cell-based", "key": {"[1]": {"test_system": "Aspergillus brasiliensis ATCC 16404/NCPF 2275", "settings": "PGC 0 ppm", "protocol": "A test suspension was then created in tryptone buffered saline and adjusting the cell concentration to between 1×10^5 and 5×10^6 CFU/ml.\n(§1) For each organism tested, 1 g of each preservative agent and PGC composition sample was prepared in sterile distilled water.\n(§2) Each test sample was prepared by inoculating 1 ml aliquot of the test organism suspension into 1 ml of test sample.\n(§3) The combination was then mixed. Each test mixture was sampled and tested at a defined time point after inoculation. The contact times used in this study are detailed in Table 7 above.\n(§4) Upon reaching the specified contact time the test mixture was deactivated by adding a 100 μl of test mixture into 900 μl of neutralizing broth and the whole solution was mixed. The solution was left for 5 minutes to ensure the action of the preservative agent was effectively neutralized. Subsequent dilutions were prepared by adding 100 μl into 900 μl of neutralizing broth.\n(§5) For each dilution prepare drop plates using appropriate agar and incubate at the appropriate temperature and time as in Table 5.\n(§6) Used the drop plate technique.\n(§7) Prepare agar plates by drying for 45 min-1 hour in a laminar flow at 20-25° C. Aliquot 0.025 ml drops onto the agar surface for each sample dilution. Allow drops to dry and incubate appropriately.\n(§8) Plates were plates were prepared in sextuplicate for each for each sample dilution.\n(§9) [formula] • Where • d1 is sum of viable count values from 6 drops • This was then multiplied by 40 to establish cfu/ml; Enumeration and Calculation of T (Test Sample)\n(§10) [formula] • Where • d1 is sum of viable count values from 6 drops • This was then multiplied by 40 to establish cfu/ml;\n(§11) To calculate the final log reduction the following calculation was used: Log 10 N−log 10 T=log reduction"}, "[2]": {"test_system": "Candida albicans ATCC 10231/DSM 1386", "settings": "PGC 0 ppm; for Log reduction: contact time 5 min, water", "protocol": "(§12) Bacterial and yeast strains were kept cryofrozen at −80° C.; before use, they were sub-cultured onto tryptone soya agar (Bacteria) and malt extract agar (yeast), and incubated at the appropriate temperature and time.\n(§13) A test suspension was then created for each the bacteria and yeast by adding loopfuls of organism to sterile distilled water and adjusting the cell concentration to between 1×10^8 and 5×10^9 CFU/ml for bacteria, and 1×10^6 and 5×10^7 CFU/ml for yeast. This was achieved using the data from a calibration curve generated by a spectrophotometer at a wavelength of 620 nm.\nas §1, §2, §3, §4, §5, §6, §7, §8, §9, §10, §11"}, "[3]": {"test_system": "Pluralibacter gergoviae ATCC 33028/DSM 9245", "settings": "PGC 0 ppm; for Log reduction: contact time 5 min, water", "protocol": "as §12, §13, §1, §2, §3, §4, §5, §6, §7, §8, §9, §10, §11"}, "[4]": {"settings": "Didecyl dimethyl ammonium chloride 10 ppm"}, "[5]": {"settings": "Didecyl dimethyl ammonium chloride 20 ppm"}, "[6]": {"settings": "Didecyl dimethyl ammonium chloride 30 ppm"}, "[7]": {"settings": "Didecyl dimethyl ammonium chloride 40 ppm"}, "[8]": {"settings": "Didecyl dimethyl ammonium chloride 50 ppm"}}, "data": [{"molecule": "O=c1[nH]sc2ccccc12", "note": "[Benzisothiazolinone]", "values": [{"measurement": "log reduction", "setting": "[1]; Benzisothiazolinone 50 ppm", "value": "−0.03"}, {"measurement": "log reduction", "setting": "[1]; Benzisothiazolinone 100 ppm", "value": 0.17}, {"measurement": "log reduction", "setting": "[1]; Benzisothiazolinone 250 ppm", "value": 0.14}, {"measurement": "log reduction", "setting": "[1]; Benzisothiazolinone 500 ppm", "value": 0.24}, {"measurement": "log reduction", "setting": "[1]; Benzisothiazolinone 1000 ppm", "value": 0.28}, {"measurement": "log reduction", "setting": "[2]; Benzisothiazolinone 50 ppm", "value": 0.00}, {"measurement": "log reduction", "setting": "[2]; Benzisothiazolinone 100 ppm", "value": 0.00}, {"measurement": "log reduction", "setting": "[2]; Benzisothiazolinone 250 ppm", "value": 0.00}, {"measurement": "log reduction", "setting": "[2]; Benzisothiazolinone 500 ppm", "value": 0.00}, {"measurement": "log reduction", "setting": "[2]; Benzisothiazolinone 1000 ppm", "value": 0.00}, {"measurement": "log reduction", "setting": "[3]; Benzisothiazolinone 12.5 ppm", "value": 0.00}, {"measurement": "log reduction", "setting": "[3]; Benzisothiazolinone 25 ppm", "value": 0.00}, {"measurement": "log reduction", "setting": "[3]; Benzisothiazolinone 50 ppm", "value": 0.00}, {"measurement": "log reduction", "setting": "[3]; Benzisothiazolinone 100 ppm", "value": 0.03}, {"measurement": "log reduction", "setting": "[3]; Benzisothiazolinone 200 ppm", "value": 1.21}]}, {"molecule": "OCc1ccccc1", "note": "[Benzyl Alcohol]", "values": [{"measurement": "log reduction", "setting": "[3]; Benzyl Alcohol 500 ppm", "value": 0.00}, {"measurement": "log reduction", "setting": "[3]; Benzyl Alcohol 1000 ppm", "value": 1.24}, {"measurement": "log reduction", "setting": "[3]; Benzyl Alcohol 2000 ppm", "value": 1.57}, {"measurement": "log reduction", "setting": "[3]; Benzyl Alcohol 3000 ppm", "value": 2.04}, {"measurement": "log reduction", "setting": "[3]; Benzyl Alcohol 4000 ppm", "value": 4.04}]}, {"molecule": "CCCCCCCCCCCCN(CCCN)CCCN", "note": "[Bis (3-aminopropyl) dodecylamine]", "values": [{"measurement": "Log reduction", "setting": "[2]; Bis (3-aminopropyl) dodecylamine 10 ppm", "value": 3.14}, {"measurement": "Log reduction", "setting": "[2]; Bis (3-aminopropyl) dodecylamine 20 ppm", "value": ">4.44"}, {"measurement": "Log reduction", "setting": "[2]; Bis (3-aminopropyl) dodecylamine 40 ppm", "value": ">4.44"}, {"measurement": "Log reduction", "setting": "[2]; Bis (3-aminopropyl) dodecylamine 60 ppm", "value": ">4.44"}, {"measurement": "Log reduction", "setting": "[2]; Bis (3-aminopropyl) dodecylamine 80 ppm", "value": ">4.44"}, {"measurement": "Log reduction", "setting": "[3]; Bis (3-aminopropyl) dodecylamine 5 ppm", "value": 0.01}, {"measurement": "Log reduction", "setting": "[3]; Bis (3-aminopropyl) dodecylamine 12.5 ppm", "value": 0.00}, {"measurement": "Log reduction", "setting": "[3]; Bis (3-aminopropyl) dodecylamine 25 ppm", "value": 2.00}, {"measurement": "Log reduction", "setting": "[3]; Bis (3-aminopropyl) dodecylamine 50 ppm", "value": ">5.52"}, {"measurement": "Log reduction", "setting": "[3]; Bis (3-aminopropyl) dodecylamine 100 ppm", "value": ">5.52"}]}, {"molecule": "CC(=O)C1C(=O)C=C(C)OC1=O", "note": "(stereo not drawn) [Dehydroacetic acid]", "values": [{"measurement": "log reduction", "setting": "[2]; Dehydroacetic acid 1000 ppm", "value": 0.00}, {"measurement": "log reduction", "setting": "[2]; Dehydroacetic acid 2000 ppm", "value": 0.00}, {"measurement": "log reduction", "setting": "[2]; Dehydroacetic acid 3000 ppm", "value": 0.00}, {"measurement": "log reduction", "setting": "[2]; Dehydroacetic acid 4000 ppm", "value": 0.23}, {"measurement": "log reduction", "setting": "[2]; Dehydroacetic acid 5000 ppm", "value": 0.52}]}, {"molecule": "CCCCCCCCCC[N+](C)(C)CCCCCCCCCC.[Cl-]", "note": "[Didecyl dimethyl ammonium chloride]", "values": [{"measurement": "log reduction", "setting": "[1]; [4]", "value": 1.01}, {"measurement": "log reduction", "setting": "[1]; [5]", "value": 2.44}, {"measurement": "log reduction", "setting": "[1]; [6]", "value": ">4.05"}, {"measurement": "log reduction", "setting": "[1]; [7]", "value": ">4.05"}, {"measurement": "log reduction", "setting": "[1]; [8]", "value": ">4.05"}, {"measurement": "Log reduction", "setting": "[2]; [4]", "value": 1.07}, {"measurement": "Log reduction", "setting": "[2]; [5]", "value": 1.01}, {"measurement": "Log reduction", "setting": "[2]; [6]", "value": 1.33}, {"measurement": "Log reduction", "setting": "[2]; [7]", "value": 2.43}, {"measurement": "Log reduction", "setting": "[2]; [8]", "value": ">4.52"}]}, {"molecule": "CC(O)C(=O)O", "note": "(stereo not drawn) [Lactic Acid]", "values": [{"measurement": "log reduction", "setting": "[1]; Lactic Acid 100 ppm", "value": 0.06}, {"measurement": "log reduction", "setting": "[1]; Lactic Acid 250 ppm", "value": 0.12}, {"measurement": "log reduction", "setting": "[1]; Lactic Acid 500 ppm", "value": 0.05}, {"measurement": "log reduction", "setting": "[1]; Lactic Acid 1000 ppm", "value": 0.08}, {"measurement": "log reduction", "setting": "[1]; Lactic Acid 2500 ppm", "value": 0.15}, {"measurement": "log reduction", "setting": "[3]; Lactic Acid 200 ppm", "value": 0.00}, {"measurement": "log reduction", "setting": "[3]; Lactic Acid 500 ppm", "value": 0.00}, {"measurement": "log reduction", "setting": "[3]; Lactic Acid 1000 ppm", "value": 2.08}, {"measurement": "log reduction", "setting": "[3]; Lactic Acid 1500 ppm", "value": 3.67}, {"measurement": "log reduction", "setting": "[3]; Lactic Acid 2000 ppm", "value": 4.49}]}, {"molecule": "O=C([O-])c1ccccc1.[Na+]", "note": "[Sodium Benzoate]", "values": [{"measurement": "log reduction", "setting": "[1]; Sodium Benzoate 10000 ppm", "value": 0.17}, {"measurement": "log reduction", "setting": "[1]; Sodium Benzoate 20000 ppm", "value": 0.50}, {"measurement": "log reduction", "setting": "[1]; Sodium Benzoate 30000 ppm", "value": 0.70}, {"measurement": "log reduction", "setting": "[1]; Sodium Benzoate 40000 ppm", "value": 1.32}, {"measurement": "log reduction", "setting": "[1]; Sodium Benzoate 50000 ppm", "value": 1.34}, {"measurement": "log reduction", "setting": "[2]; Sodium Benzoate 10000 ppm", "value": 0.00}, {"measurement": "log reduction", "setting": "[2]; Sodium Benzoate 20000 ppm", "value": 0.00}, {"measurement": "log reduction", "setting": "[2]; Sodium Benzoate 30000 ppm", "value": 0.00}, {"measurement": "log reduction", "setting": "[2]; Sodium Benzoate 40000 ppm", "value": 0.00}, {"measurement": "log reduction", "setting": "[2]; Sodium Benzoate 50000 ppm", "value": 2.06}, {"measurement": "log reduction", "setting": "[3]; Sodium Benzoate 2000 ppm", "value": 0.00}, {"measurement": "log reduction", "setting": "[3]; Sodium Benzoate 5000 ppm", "value": 0.00}, {"measurement": "log reduction", "setting": "[3]; Sodium Benzoate 10000 ppm", "value": 0.00}, {"measurement": "log reduction", "setting": "[3]; Sodium Benzoate 20000 ppm", "value": 0.46}, {"measurement": "log reduction", "setting": "[3]; Sodium Benzoate 30000 ppm", "value": 1.40}]}, {"molecule": "C/C=C/C=C/C(=O)O", "note": "[Sorbic Acid]", "values": [{"measurement": "log reduction", "setting": "[3]; Sorbic acid 100 ppm", "value": 0.00}, {"measurement": "log reduction", "setting": "[3]; Sorbic acid 200 ppm", "value": 0.00}, {"measurement": "log reduction", "setting": "[3]; Sorbic acid 300 ppm", "value": 0.00}, {"measurement": "log reduction", "setting": "[3]; Sorbic acid 400 ppm", "value": 0.58}, {"measurement": "log reduction", "setting": "[3]; Sorbic acid 500 ppm", "value": 1.38}]}]}
